# Source: US20100040552A1, “METHODS TO EVALUATE GLUCOCORTICOID RECEPTOR AGONISTS AND ANTAGONISTS FOR EFFECTS ON NEURON-LIKE CELLS” (ROSETTA INPHARMATICS LLC, priority 2005, published 2010)
# Key:
# [1] = test system: RGS2 and RGS4 mRNA; details: cited from earlier work
# [2] = test system: CA77 cells; assay: CA77 cell microarray profiling; type: cell-based, rat
# Description: In order to reduce false positives, progesterone, estradiol, and aldosterone served as out-groups for non-specific effects. Samples were collected at both 6 hours and 24 hours after contacting the CA77 cells with a compound.
# [3] = test system: CA77 cells; assay: CA77 cell assay, real-time RT-PCR (TaqMan); type: cell-based, rat
# Description: Assay: CA77 cells were plated into 96 well tissue culture dishes at a density of 8×10^4 cells per well in 200 μl of PM and the cultures maintained in a humidified air atmosphere (7.5% CO2) at 37° C. This media was aspirated after 24 hours and replaced with 200 μl of GM and the cultures incubated as before, for an additional 48 hours, at which time the cultures were at approximately 90% confluency.
# For the evaluation of agonist activity, the GM was aspirated, replaced with 200 μl of fresh GM containing concentrations of a drug ranging from 0.1 nM to 10,000 nM in a 10-fold dilution series. Control wells of 0 nM drug in GM and 0.1% DMSO in GM were included in the series for each drug. Each drug concentration and the two controls were evaluated on 4 wells. The cultures were maintained in a humidified air atmosphere (7.5% CO2) at 37° C. for 24 hours.
# Control wells of 0 nM drug in GM containing 250 nM corticosterone and 0.1% DMSO in GM (without corticosterone) were included in the series for each drug. Each drug concentration and the two controls were evaluated on 4 wells. The cultures were maintained in a humidified air atmosphere (7.5% CO2) at 37° C. for 24 hours.
# Lysis of Cells and Isolation of mRNA: Two methods were employed for the lysis of the cells and the isolation of mRNA at the end of the 24-hour incubation with the drugs.
# One method was the mRNA Catcher™ Method (using Kit number 37001, sold by Invitrogen Corporation). The GM was aspirated from the cells, the cell monolayer was washed once with PBS (product number 10010, sold by Invitrogen Corporation), and then the cells were lysed in 30 μl of the kit lysis buffer containing 1% β-ME for 5 minutes at room temperature. The lysates were snap frozen in the 96-well plate by placing the plate on dry ice pellets, and the plate was then stored at −80° C.
# The lysates were thawed at room temperature and then transferred into individual wells in the mRNA Catcher™ plate. The plate was covered and incubated for 90 minutes at room temperature for RNA hybridization. […]
# [4] = test system: Sult1a1; assay: In vivo Sult1a1 expression assay (Example 2); design: species or system rat; details: co-administered with dexamethasone
# Description: Methods: […] […] The rats were sacrificed 6 hours after the final dose and the hippocampus, raphe and caudate nucleus were dissected and placed in […]® (Qiagen, Valencia, Calif.) for 24 hours. The tissue was then placed in a fresh tube and stored at -80 C. Total RNA was prepared using Trizol® (InVitrogen, Carlsbad, Calif.) using the manufacturer's standard protocol. The total RNA was DNase treated and cDNA was made using the methods described in Example 1 in connection with CA77 cell cDNA preparation.
# [5] = target: T1, Glucocorticoid Receptor (Homo sapiens, UniProt P04150); assay: Transrepression assay, COS cells; type: cell-based; design: host or cells: COS cells
# T1 sequence (P04150 1-777): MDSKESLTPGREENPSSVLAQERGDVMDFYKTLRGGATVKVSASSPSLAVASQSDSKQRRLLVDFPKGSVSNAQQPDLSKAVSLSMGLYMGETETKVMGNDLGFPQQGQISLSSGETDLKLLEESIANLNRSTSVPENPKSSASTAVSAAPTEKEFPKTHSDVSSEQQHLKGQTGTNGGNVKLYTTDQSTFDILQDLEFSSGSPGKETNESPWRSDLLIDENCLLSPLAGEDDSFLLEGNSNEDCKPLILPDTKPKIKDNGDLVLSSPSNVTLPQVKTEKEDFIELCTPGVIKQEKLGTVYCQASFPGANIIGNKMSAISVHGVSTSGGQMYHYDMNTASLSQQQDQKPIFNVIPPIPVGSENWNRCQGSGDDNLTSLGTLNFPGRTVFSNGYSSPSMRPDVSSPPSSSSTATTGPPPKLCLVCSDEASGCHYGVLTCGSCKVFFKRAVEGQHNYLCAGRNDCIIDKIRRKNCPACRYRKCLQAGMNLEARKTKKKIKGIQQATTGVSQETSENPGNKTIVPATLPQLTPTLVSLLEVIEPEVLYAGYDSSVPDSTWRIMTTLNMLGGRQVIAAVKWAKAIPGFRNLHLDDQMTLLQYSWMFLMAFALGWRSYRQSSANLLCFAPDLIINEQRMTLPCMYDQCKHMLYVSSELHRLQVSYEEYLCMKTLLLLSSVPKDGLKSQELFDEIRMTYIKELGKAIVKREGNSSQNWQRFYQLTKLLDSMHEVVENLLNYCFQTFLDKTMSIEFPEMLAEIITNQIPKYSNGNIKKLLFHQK
# [6] = test system: A549 cells; assay: A549 cell molecular profiling experiment; type: cell-based; details: for Up-regulated genes in category DMSO (<0%) / Up-regulated genes in category Full (≧90%) / Up-regulated genes in category High (66.7-90%) / Up-regulated genes in category Low (0-33.3%) / Up-regulated genes in category Middle (33.3-66.7%): set of 1091 genes; for Down-regulated genes in category DMSO (<0%) / Down-regulated genes in category Full (≧90%) / Down-regulated genes in category High (66.7-90%) / Down-regulated genes in category Low (0-33.3%) / Down-regulated genes in category Middle (33.3-66.7%): set of 1249 genes
# [7] = target: T1, Glucocorticoid Receptor; assay: Transactivation assay, A549 cells; type: cell-based
# [8] = target: T1, Glucocorticoid Receptor; assay: Classification of effect on the glucocorticoid receptor; type: cell-based; design: host or cells: COS cells; details: as assessed by MDA and A549 transactivation and COS transrepression assays
# [9] = target: T1, Glucocorticoid Receptor; assay: Transactivation assay, MDA cells; type: cell-based; design: host or cells: MDA cells; details: maximal response
# [10] = test system: RGS2, RGS4 and Sult1a1 gene expression; assay: In vivo RT-PCR of rat caudate and raphe nucleus (Example 1)
# Text: Cross-hatched bars represent RGS2 gene expression. Unhatched bars represent RGS4 gene expression. ** p=0.003. * p=0.001.
# Cross-hatched bars represent Sult1a1 gene expression in the caudate nucleus. Unhatched bars represent Sult1a1 gene expression in the raphe nucleus. *p<0.001.
# [11] = target: T2, MR (mineralocorticoid receptor) (Homo sapiens, UniProt P08235); assay: MR binding study
# T2 sequence (P08235 1-984): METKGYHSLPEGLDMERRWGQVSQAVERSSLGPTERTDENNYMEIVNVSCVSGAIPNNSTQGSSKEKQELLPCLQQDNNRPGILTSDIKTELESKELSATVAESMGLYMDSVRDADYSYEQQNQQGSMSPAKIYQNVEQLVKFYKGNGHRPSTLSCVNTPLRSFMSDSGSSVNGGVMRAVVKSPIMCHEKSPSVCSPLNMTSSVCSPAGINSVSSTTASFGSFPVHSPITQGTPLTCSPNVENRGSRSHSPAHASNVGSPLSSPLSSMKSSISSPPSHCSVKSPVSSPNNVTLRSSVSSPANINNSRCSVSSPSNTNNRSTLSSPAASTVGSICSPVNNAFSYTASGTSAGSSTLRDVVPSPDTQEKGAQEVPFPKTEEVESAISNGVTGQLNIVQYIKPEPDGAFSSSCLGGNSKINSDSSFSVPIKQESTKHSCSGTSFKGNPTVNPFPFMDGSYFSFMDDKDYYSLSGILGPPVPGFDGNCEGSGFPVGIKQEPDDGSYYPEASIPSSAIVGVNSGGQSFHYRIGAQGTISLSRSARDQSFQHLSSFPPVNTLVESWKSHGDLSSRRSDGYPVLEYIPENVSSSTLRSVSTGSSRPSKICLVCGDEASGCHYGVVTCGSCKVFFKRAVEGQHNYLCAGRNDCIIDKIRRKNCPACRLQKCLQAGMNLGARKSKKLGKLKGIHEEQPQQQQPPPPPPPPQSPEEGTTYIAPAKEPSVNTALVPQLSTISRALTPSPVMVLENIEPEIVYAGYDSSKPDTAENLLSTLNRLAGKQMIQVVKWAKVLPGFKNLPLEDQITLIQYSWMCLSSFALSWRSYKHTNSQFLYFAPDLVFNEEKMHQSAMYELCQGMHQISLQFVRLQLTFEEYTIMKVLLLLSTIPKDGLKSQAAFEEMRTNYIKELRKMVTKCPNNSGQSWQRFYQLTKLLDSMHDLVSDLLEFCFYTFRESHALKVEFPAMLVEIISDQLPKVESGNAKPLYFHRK
# Text: The following abbreviations are used in Table II: MR, mineralocorticoid receptor; GR, glucocorticoid receptor; and PR, progesterone receptor.
structure (smiles),measurement,setting,value
O=C(CCCN1CCC(O)(c2ccc(Cl)cc2)CC1)c1ccc(F)cc1 [haloperidol],RGS2 mRNA,[1],up-regulated
same,RGS4 mRNA levels,[1],down-regulation
C[C@]12CCC(=O)C=C1CC[C@@H]1[C@@H]2[C@@H](O)C[C@]2(C=O)[C@@H](C(=O)CO)CC[C@@H]12 [aldosterone],Activity in the GR agonist signature at 6 hours,[2]; 6 hours,little or no activity
same,Presence of the GR agonist signature,[2]; response at 24 hours,weakly present
C[C@]12C[C@H](O)[C@H]3[C@@H](CCC4=CC(=O)CC[C@@]43C)[C@@H]1CC[C@@H]2C(=O)CO [corticosterone],EC50,"[3]; Rattus norvegicus, CA77 cell assay",250 nM
"CC#C[C@]1(O)CC[C@H]2[C@@H]3CCC4=CC(=O)CCC4=C3[C@@H](c3ccc(N(C)C)cc3)C[C@@]21C [RU-486, mifepristone]",Effect on dexamethasone-induced Sult1a1 upregulation in the hippocampus,[4],reversal of this effect
same,Emax at 1 µM,"[5]; COS, read-out: Transrepression, COS % Emax, 1 uM",40%
same,Up-regulated genes in category DMSO (<0%),[6]; 1 μm,287
same,Up-regulated genes in category Full (≧90%),[6]; 1 μm,38
same,Up-regulated genes in category High (66.7-90%),[6]; 1 μm,63
same,Up-regulated genes in category Low (0-33.3%),[6]; 1 μm,449
same,Up-regulated genes in category Middle (33.3-66.7%),[6]; 1 μm,254
same,Down-regulated genes in category DMSO (<0%),[6]; 1 μm,454
same,Down-regulated genes in category Full (≧90%),[6]; 1 μm,41
same,Down-regulated genes in category High (66.7-90%),[6]; 1 μm,70
same,Down-regulated genes in category Low (0-33.3%),[6]; 1 μm,418
same,Down-regulated genes in category Middle (33.3-66.7%),[6]; 1 μm,266
same,Emax,"[7]; A549, read-out: Transactivation, A549 Emax",90%
same,Effect on the glucocorticoid receptor (degree of agonist activity),[8],low partial agonist activity
same,"Effect on up-regulation of RGS2, Sult1a1, IL6R and SGK by a GR agonist","[3]; CA77 cells, co-administered with dexamethasone",reversal of this effect
"C[C@H]1C[C@@H]2[C@H]([C@@H](O)C[C@@]3(C)[C@H]2CC[C@]3(O)C(=O)CO)[C@@]2(C)C=CC(=O)C=C12 [M-Prednisolone, 6α-methylprednisolone]","Transactivation, MDA Emax",[9],104%
same,"Transrepression, COS % Emax, 0.3 μM",[5]; 0.3 μM,100%
same,"Transrepression, COS % Emax, 1 uM",[5]; 1 uM,100%
same,RGS4 expression in caudate nucleus,[10]; down-regulated,about 50 % of control levels
same,RGS2 expression in caudate nucleus,[10]; upregulated vs vehicle,2 fold
same,"Transactivation, A549 Emax",[7]; maximal response,124%
"C[C@]12C=CC(=O)C=C1CC[C@@H]1[C@@H]2[C@@H](O)C[C@@]2(C)[C@H]1CC[C@]2(O)C(=O)CO [Prednisolone, prednisolone]",Up-regulated genes in category DMSO (<0%),[6]; 100 nM,0
same,Up-regulated genes in category Full (≧90%),[6]; 100 nM,940
same,Up-regulated genes in category High (66.7-90%),[6]; 100 nM,150
same,Up-regulated genes in category Low (0-33.3%),[6]; 100 nM,0
same,Up-regulated genes in category Middle (33.3-66.7%),[6]; 100 nM,1
same,Down-regulated genes in category DMSO (<0%),[6]; 100 nM,0
same,Down-regulated genes in category Full (≧90%),[6]; 100 nM,1140
same,Down-regulated genes in category High (66.7-90%),[6]; 100 nM,109
same,Down-regulated genes in category Low (0-33.3%),[6]; 100 nM,0
same,Down-regulated genes in category Middle (33.3-66.7%),[6]; 100 nM,0
same,Effect on the glucocorticoid receptor (degree of agonist activity),[8],full agonist activity
same,IC50,[11],0.98 nM
